Results from US20060276433A1, “Hydrazone derivative” (priority 2003, published 2006).

Tests used:
[1] = target: T1, amyloid β-protein (human, 1-40) (Homo sapiens, UniProt P05067); assay: Effect of drugs on the amyloid formation of amyloid β-protein (Thioflavine T method); format: biochemical; conditions: read-out: IC50 value (50% inhibition concentration of amyloid formation)
Procedure: Thereafter, the quantity of amyloid formation was measured by the Thioflavine T method (Naiki et al., Lab Invest, 65, 104-110, 1991). The measured value was converted to a relative value (%) based on the quantity of amyloid formation in the drug-non-added control group, and then 50% inhibition concentration (IC50 value) of amyloid formation was calculated.

Amyrin = target: T2, Amyrin (Homo sapiens, UniProt P10997); assay: Effect on amyloid formation of various amyloid forming proteins (Thioflavine T method): Amyrin; format: biochemical; conditions: Amyrin 10 μM, PBS(−), room temperature, sampled next day; read-out: IC50 (50% inhibition concentration of amyloid formation), Amyrin
T2 construct: Amyrin (10 μM; purchased from Bachem), as an amyloid forming protein; purchased Bachem
T2 sequence (P10997 34-70 limits assumed): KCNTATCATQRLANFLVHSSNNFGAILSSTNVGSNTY

[2] = target: Amyloid β-protein (human, 1-42) (Homo sapiens, UniProt P05067); assay: Effect on amyloid formation of various amyloid forming proteins (Thioflavine T method): Aβ1-42; format: biochemical; conditions: Aβ1-42 10 μM, PBS(−), room temperature, sampled next day; read-out: IC50 (50% inhibition concentration of amyloid formation), Aβ1-42
Chain of Amyloid β-protein (human, 1-42) (P05067 18-42): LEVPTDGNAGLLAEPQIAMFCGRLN

[3] = target: T1, amyloid β-protein (human, 1-40); assay: Effect on amyloid formation of various amyloid forming proteins (Thioflavine T method): Aβ1-40; format: biochemical; conditions: Aβ1-40 10 μM, PBS(−), room temperature, sampled next day; read-out: IC50 (50% inhibition concentration of amyloid formation), Aβ1-40
[4] = target: partial fragment of prion protein (PrP 118-135) (Homo sapiens, UniProt P04156); assay: biochemical
[5] = system: amyloid (senile plaque) in human Alzheimer disease brain sections; assay: Specific binding to amyloid in Alzheimer disease brain sections (fluorescence microscopy); conditions: 50 μM in TBS, formalin-fixed human Alzheimer disease brain sections, fluorescence microscope
Procedure: Specific Binding to Amyloid
The compound of Example 21 having fluorescence was dissolved in TBS at a concentration of 50 μM and incubated with formalin-fixed human Alzheimer disease brain sections (purchased from BioChain). Thereafter, the sections were washed with saturated lithium carbonate/40% ethanol, dried and then observed under a fluorescence microscope.
Thus, it was shown that the compound of the present invention can specifically bind to amyloid in the Alzheimer brain.

[6] = 15 μM amyloid β-protein (human, 1-40), PBS(−), room temperature, 1 day, drug 1.6, 8 or 40 μM

T1 sequence (P05067 18-40): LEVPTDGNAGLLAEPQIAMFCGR

## Nc1c(/N=N/c2ccc(-c3ccc(/N=N/c4cc(S(=O)(=O)O)c5ccccc5c4N)cc3)cc2)cc(S(=O)(=O)O)c2ccccc12 [Congo Red, Congo red, reference compound]
[1]; [6]
  IC50: 870 nM

## CC(=C(C#N)C#N)c1ccc2cc(N(C)C)ccc2c1 [DDNP]
[1]
  IC50: 3230 nM

## C(=NNc1ccc(-c2cnco2)cc1)c1ccncc1 [Example 3, 4-Pyridinecarboxyaldehyde 4-(oxazol-5-yl)phenylhydrazone]
Amyrin
  IC50: 2080 nM
[2]
  IC50: 700 nM
[1]; [6]
  IC50: 2940 nM
[3]
  IC50: 1160 nM
[4]
  IC50: 1970 nM

## Cc1ccc2nc(-c3ccc(N/N=C/c4ccncc4)cc3)sc2c1 [Example 21, 4-Pyridinecarboxyaldehyde 4-(6-methylbenzothiazol-2-yl)phenylhydrazone]
[5]
  Fluorescence binding to amyloid in brain sections: accumulation of fluorescence was found in the senile plaque
